Reference: US8450527B2, “Amine derivative compounds for treating ophthalmic diseases and disorders” (Acucela Inc., priority 2007, dated 2013)

Molecular target: T1, visual cycle isomerase (Mus musculus, UniProt Q91ZQ5)
T1 construct: The recovery of 11-cis-retinal after bleaching can be used to estimate the activity of isomerase in vivo; from tissue; host or cells: eye (RPE) of living CD-1 albino male mice
T1 sequence (Q91ZQ5 1-533): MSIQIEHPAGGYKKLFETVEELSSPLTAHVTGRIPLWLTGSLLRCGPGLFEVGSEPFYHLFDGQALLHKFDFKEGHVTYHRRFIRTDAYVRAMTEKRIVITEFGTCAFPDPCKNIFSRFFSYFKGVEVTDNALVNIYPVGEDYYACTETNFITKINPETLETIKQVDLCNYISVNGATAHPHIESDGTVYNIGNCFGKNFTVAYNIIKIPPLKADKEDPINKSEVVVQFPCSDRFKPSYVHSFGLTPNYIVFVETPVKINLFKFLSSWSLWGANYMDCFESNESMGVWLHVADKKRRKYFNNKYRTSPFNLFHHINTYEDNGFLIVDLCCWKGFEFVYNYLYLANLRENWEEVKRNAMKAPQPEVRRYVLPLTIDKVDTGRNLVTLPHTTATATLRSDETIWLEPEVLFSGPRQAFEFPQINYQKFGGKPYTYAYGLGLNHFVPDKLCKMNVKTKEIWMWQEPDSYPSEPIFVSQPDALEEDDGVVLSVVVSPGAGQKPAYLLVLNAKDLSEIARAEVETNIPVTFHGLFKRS
Assay: in vivo murine isomerase assay: recovery of 11-cis-retinal (oxime) after photobleaching
Description: FIG. 1 illustrates isomerase inhibitory activity of the compound of Example 3 (Compound 3). The animals were orally gavaged with 1 mg/kg compound, then “photo-bleached” (5000 Lux white light for 10 minutes) at 4, 24 and 48 hours after dosing, and returned to darkness to allow recovery of the 11-cis-retinal content of the eyes. Mice were sacrificed 2 hours after bleaching, eyes were enucleated, and retinoid content was analyzed by HPLC.
FIG. 2 illustrates concentration-dependent inhibition of isomerase activity by the compound of Example 19 (Compound 19). […] Five animals were included in each treatment group. The error bars correspond to standard error.
A method for determining the effect of a compound on isomerase activity may be performed in vitro as described herein and in the art (Stecher et al., J Biol Chem 274:8577-85 (1999); see also Golczak et al., Proc. Natl. Acad. Sci. USA 102:8162-67 (2005)). Retinal pigment epithelium (RPE) microsome membranes isolated from an animal (such as bovine, porcine, human, for example) may serve as the source of the isomerase. The capability of the amine derivative compounds to inhibit isomerase may also be determined by an in vivo murine isomerase assay. Brief exposure of the eye to intense light (“photobleaching” of the visual pigment or simply “bleaching”) is known to photo-isomerize almost all 11-cis-retinal in the retina. […]

Question: How did the “inhibition of 11-cis retinal (oxime) recovery” value (FIG. 2A/2B, dose response) turn out when `CCCC(O)(CCC)CCc1cccc(C(O)CCN)c1` (centres unmarked) [Example 19, 4-(3-(3-amino-1-hydroxypropyl)phenethyl)heptan-4-ol] was run?
Answer: dose related

Question: And the ED50 (mouse, read-out: ED50 (dose of compound that gives 50% inhibition of 11-cis retinal (oxime) recovery), FIG. 2, five animals per treatment group, estimated from dose response)?
Answer: ~0.651 mg/kg
